In patent US7662813B2, “Triazole compounds that modulate HSP90 activity” (Synta Pharmaceuticals Corp., priority 2005, dated 2010):

Experiments:
c-kit [1] = assay: Western blot analysis of c-Kit in Kasumi-1 cells; type: cell-based
Description: The results of the FACS analysis were confirmed with Western blot analysis (see FIG. 2). […] In contrast, 17-AAG had no effect of c-Kit protein levels at either 100 nM or 400 nM.

c-kit [2] = assay: FACS-based c-kit degradation assay in Kasumi-1 cells; type: cell-based; conditions: about 18 h
Description: Leukemia cell line, Kasumi-1, was used for testing c-kit degradation induced by Hsp90 inhibitors of the invention. The cells (3×10^5 per well) were treated with 17AAG (0.5 μM) or Compound 11 (0.05 μM or 0.5 μM) for about 18 h. The cells were collected and centrifuged (SORVALL RT 6000D) at 1200 rpm for 5 min. The supernatants were discarded, and the cells were washed one time with 1×PBS. After centrifugation the cells were stained with FITC conjugated c-kit antibody (MBL International, Cat# K0105-4) in […] 1×PBS at 4° C. for 1 h. The samples were read and analyzed with FACSCalibur flow cytometer (Becton Dicknson).

Her2 = assay: Degradation of Her2 in BT-474 cells (Method 1, Western blot); type: cell-based, human; conditions: 0.5 μM, overnight
Description: Human high-Her2 breast carcinoma BT474 (HTB-20), SK-BR-3 (HTB-30) and MCF-7 breast carcinoma (HTB-22) from American Type Culture Collection, VA, USA were grown in Dulbecco's modified Eagle's medium with 4 mM L-glutamine and antibiotics (100 IU/ml penicillin and 100 ug/ml streptomycine; GibcoBRL). To obtain exponential cell growth, cells were trypsinized, counted and seeded at a cell density of 0.5×10^6 cells /ml regularly, every 3 days. All experiments were performed on day 1 after cell passage.
BT-474 cells are treated with 0.5 μM, 2 μM, or 5 μM of 17AAG (a positive control) or 0.5 μM, 2 μAM, or 5 μM of a compound of the invention overnight in DMEM medium. After treatment, each cytoplasmic sample is prepared from 1×10^6 cells by incubation of cell lysis buffer (#9803, cell Signaling Technology) on ice for 10 minutes. The resulting supernatant used as the cytosol fractions is dissolved with sample buffer for SDS-PAGE and run on a SDS-PAGE gel, blotted onto a nitrocellulose membrane by using semi-dry transfer. Non-specific binding to nitrocellulose is blocked with 5% skim milk in TBS with 0.5% Tween at room temperature for 1 hour, then probed with anti-Her2/ErB2 mAb (rabbit IgG, #2242, Cell Signaling) and anti-Tubulin (T9026, Sigmna) as housekeeping control protein. […]

Compound	Degradation of c-Kit (Western blot) (c-kit [1]; 100 nM)	Degradation of c-Kit (Western blot) (c-kit [1]; 400 nM)	c-kit degradation (FACS) (c-kit [2]; 0.05 μM)	c-kit degradation (FACS) (c-kit [2]; 0.5 μM)	Degradation of Her2 (Her2)
CCN(C)c1cc(-n2c(S)nnc2-c2cc(C(C)C)c(O)cc2O)ccc1OC [Compound 12, 4-(4-(3-(N-methyl-N-ethylamino)-4-methoxy-phenyl)-5-mercapto-4H-1,2,4-triazol-3-yl)-6-isopropylbenzene-1,3-diol]	induced the degradation of c-Kit	induced the degradation of c-Kit			
CCCN(C)c1cc(-n2c(S)nnc2-c2cc(C(C)C)c(O)cc2O)ccc1OC [Compound 11, 4-(4-(3-(N-methyl-N-propylamino)-4-methoxyphenyl)-5-mercapto-4H-1,2,4-triazol-3-yl)-6-isopropylbenzene-1,3-diol]	induced the degradation of c-Kit	induced the degradation of c-Kit	induced c-kit degradation	induced c-kit degradation	
C=CCNC1=C2C[C@@H](C)C[C@H](OC)[C@H](O)[C@@H](C)/C=C(\C)[C@H](OC(N)=O)[C@@H](OC)/C=C\C=C(/C)C(=O)NC(=CC1=O)C2=O [Compound 17AAG, reference compound]	no effect	no effect		could not induce c-kit degradation	partial degradation of Her2
